# Results taken from patent US20240041039A1, “COMPOSITIONS AND METHODS FOR CONTROLLING PLANT PATHOGENS INCLUDING NEMATODES” (Kannar Earth Science, Ltd., priority 2022, published 2024).
# System: root knot Meloidogyne sp. nematodes
# Experiment: Two-minute contact of live root-knot nematodes with water-based solutions in watch glass
# Format: in vivo
# Details: one drop of water-based solution, fatality recorded within 45 seconds
# Protocol: Live root knot nematodes were collected from soil and kept in shallow water in small glass beakers at room temperature. The individual components and combined formulation were prepared according to the following procedures. Aqueous solutions of individual components were prepared at the concentrations as follows: 400 ppm baicalin (95% purity; Shaanxi Darwin Biotech Co, China), 500 ppm water soluble chitosan (85% purity; Shaanxi Rainwood Biotech Co Ltd, China) and 200 ppm L-glutathione (99% purity; Hunan Insen Biotech Co Ltd, China). Since use of liquid polymer is quite common in seed treatment for better and smoother coating or coverage, each of the individual components and combinations of the components was also prepared as a solution in a cellulose-based carrier (Slurry Buddy 110 from […] Science, Ltd.). Baicalin was dissolved in 1.0 ml of DMSO separately prior to addition to the carrier. Chitosan and glutathione were dissolved in 7.8 ml water prior to addition to the 90.0 ml carrier. In each case, the pH of the solution was adjusted to 5.7. […] This liquid flowable formulation can be used as a ready-to-use (RTU) formulation for seed application. […] One drop of the water-based solutions described above was added to the watch glass with the swimming nematode and the reaction of the nematode was recorded for a period of two-minutes. […]
row,Structure (SMILES),Nematode Reaction
1,"N[C@@H](CCC(=O)N[C@@H](CS)C(=O)NCC(=O)O)C(=O)O [Glutathione, L-glutathione]",Repelling
2,"O=C(O)[C@H]1O[C@@H](Oc2cc3oc(-c4ccccc4)cc(=O)c3c(O)c2O)[C@H](O)[C@@H](O)[C@@H]1O [Baicalin, baicalin]",Repelling
